Results taken from patent publication US20250360145A1, “CSF-1R INHIBITORS AND USES THEREOF” (Myrobalan Therapeutics, Inc., priority 2022, published 2025).
Like-named read-outs stand apart in the source and are kept apart here.

Assays:
[1] = target: CSF-1R (Homo sapiens (Human), UniProt P07333); assay: Biochemical HTRF kinase assay, CSF-1R; conditions: recombinant human CSF-1R;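 note: enzyme incubated with inhibitor plus a substrate and ATP mix for one hour at room temperature before HTRF detection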
[2] = target: FLT3 (Homo sapiens (Human), UniProt P36888); assay: Biochemical HTRF kinase assay, FLT3
[3] = test system: Ba/F3_CSF-1R (stably expressing human CSF-1R kinase); assay: Cell proliferation assay, Ba/F3_CSF-1R; format: cell-based; conditions: BaF3, 72 h
[4] = test system: EOC2 cell; assay: Cell proliferation assay, EOC2; format: cell-based, mouse; conditions: Mus musculus, 72 h
[5] = In vivo PK study (plasma and brain exposure); set-up: species or system CD1 mouse; conditions: male; for Kp uu: CD1, brain, BBB penetration; for half-life: CD1, mouse; for clearance: read-out: IV-2mpk CL (converted); for Vd: read-out: IV-2mpk VSS; for bioavailability: p.o. 45 mg/kg vs i.v. 2 mg/kg; for Cmax: read-out: PO-45mpk Cmax; for Tmax: read-out: PO-45mpk Tmax
Description: The PK profiles were determined in CD1 mouse, and all the procedures and protocols were in accordance with the National Institutes of Health Guide for the Care and Use of Laboratory Animals. The CD1 mouse were purchased from JH Laboratory Animal Co. LTD. The CD1 mouse (23-30 g, 6-8 weeks, male) were randomized and divided into five groups consisting of 21 mouse per group. The test compounds that have been formulated were subjected to PK studies. The test compounds were administrated via p.o. at 45 mg/kg and i.v. at 2 mg/kg. […] The blood samples were placed on wet ice, and serum was collected after centrifugation. Serum samples were frozen and stored at −70° C. The brain samples were dried on filtrate paper, and snap frozen on dry ice and further stored at −70° C. Then, the blood samples and brain samples were further analyzed by LC-MS/MS (Triple Quad 6500+).

[6] = Plasma protein binding study; format: in vitro ADME; conditions: mouse plasma, equilibrium dialysis 4 hours; read-out: PPB-mouse (Bound) (%) (converted)
Description: On the day of experiment, the plasma was thawed under running cold tap water and centrifuged at 3220×g for 5 min to remove any clots. The pH value was checked and recorded. Only plasma within range of pH 7.0 to pH 8.0 was used. Pretreat the dialysis membrane according to the manufacturer's instructions: the dialysis membrane strips were soaked in ultra pure water at room temperature for approximately 1 hr. After that, each membrane strip that contains 2 membranes was separated and soaked in ethanol:water (20:80 v:v) for approximately 20 min, after which it was ready for use or was stored in the solution at 2-8° C. for up to 1 month. Prior to the experiment, the membrane was rinsed and soaked for 20 min in ultra pure water for use. Working solutions (400 μM) of test compound and control compound were prepared. Aliquots of working solutions (3 μL) were spiked into blank matrix (597 μL) to achieve final concentrations and mixed thoroughly. Aliquots of 50 μL loading matrix containing test compound or control compound in triplicate was transferred to Sample Collection Plate, respectively. The samples were matched with opposite blank buffer to obtain a final volume of 100 μL with a volume ratio of matrix:Dialysis Buffer (1:1, v:v) in each well immediately. The stop solution was added to these T0 samples of test compound and control compound. The plate was sealed and shaked at 800 rpm for 10 min. Then these T0 samples were stored at 2-8° C. pending further process along with other post-dialysis samples. The dialysis instrument was assembled following manufacture's instructions. An aliquot of 100 μL of the loading matrix containing test compound or control compound was transferred to the donor side of each dialysis well in triplicate and 100 μL of the Dialysis Buffer was loaded to the receiver side of the well. Then the plate was rotated at approximately 100 rpm in a humidified incubator with 5% CO2 at 37±1° C. for 4 hours. At the end of the dialysis, aliquots of 50 μL samples from the buffer side and matrix side of the dialysis device were taken into new 96-well plates (Sample Collection Plates). An equal volume of opposite blank matrix (buffer or matrix) in each sample was added to reach a final volume of 100 μL with volume ratio of matrix:Dialysis Buffer at 1:1 (v:v) in each well. All samples were further processed by protein precipitation for LC/MS/MS analysis.

[7] = test system: primary rat microglia; assay: Primary rat microglia survival; format: cell-based; conditions: 3 days of exposure, Iba1 staining
From the text: To assess the potency of CSF1R inhibitors disclosed herein we isolated and expanded primary brain glia from rat cortices in-vitro. This glial culture is about 20% microglia that is supported mostly by astrocytes that make up the rest of the population. The brain glia was exposed to CSF1R inhibitors for 3 days followed by paraformaldehyde fixation and immunofluorescence staining for the microglia marker, Iba1. The glial was imaged using a high-content-imager and the changes in microglia content were quantified. Using GraphPad Prism, a four-parameter logistic regression was applied to determine the potency of the CSF1R inhibitors.

[8] = test system: human iPSC-derived microglia (hiPSC-MG); assay: hiPSC-MG survival (Presto-Blue viability); format: cell-based; conditions: 48 h treatment; for hiPSC-MG survival: FIG. 7B
[9] = EOC2 cells, 72 hours treatment, read-out: ECO2 EC50
[10] = serum, iv, 2 mg/kg, CD1 mouse, i.v. 2 mg/kg, read-out: IV-2mpk T1/2 (converted)
[11] = serum, po, 45 mg/kg, CD1 mouse, p.o. 45 mg/kg, read-out: PO-45mpk T1/2 (converted)
[12] = CD1, po, mouse, p.o. 45 mg/kg, brain, read-out: PO-45mpk AUClast-brain
[13] = CD1, po, mouse, p.o. 45 mg/kg, plasma, Tables 7 and 8, read-out: PO-45mpk AUClast-plasma
[14] = serum, iv, CD1 mouse, i.v. 2 mg/kg, read-out: IV-2mpk AUCInf
[15] = serum, iv, CD1 mouse, i.v. 2 mg/kg, read-out: IV-2mpk AUClast
[16] = serum, iv, CD1 mouse, i.v. 2 mg/kg
[17] = serum, po, CD1 mouse, p.o. 45 mg/kg, Tables 5 and 6, read-out: PO-45mpk AUClast
[18] = serum, po, CD1 mouse, p.o. 45 mg/kg, read-out: PO-45mpk AUCInf
[19] = serum, po, CD1 mouse, p.o. 45 mg/kg
[20] = read-out: CSF-1R BaF3 EC50 (nM)

CSF-1R, sequence (P07333 20-972): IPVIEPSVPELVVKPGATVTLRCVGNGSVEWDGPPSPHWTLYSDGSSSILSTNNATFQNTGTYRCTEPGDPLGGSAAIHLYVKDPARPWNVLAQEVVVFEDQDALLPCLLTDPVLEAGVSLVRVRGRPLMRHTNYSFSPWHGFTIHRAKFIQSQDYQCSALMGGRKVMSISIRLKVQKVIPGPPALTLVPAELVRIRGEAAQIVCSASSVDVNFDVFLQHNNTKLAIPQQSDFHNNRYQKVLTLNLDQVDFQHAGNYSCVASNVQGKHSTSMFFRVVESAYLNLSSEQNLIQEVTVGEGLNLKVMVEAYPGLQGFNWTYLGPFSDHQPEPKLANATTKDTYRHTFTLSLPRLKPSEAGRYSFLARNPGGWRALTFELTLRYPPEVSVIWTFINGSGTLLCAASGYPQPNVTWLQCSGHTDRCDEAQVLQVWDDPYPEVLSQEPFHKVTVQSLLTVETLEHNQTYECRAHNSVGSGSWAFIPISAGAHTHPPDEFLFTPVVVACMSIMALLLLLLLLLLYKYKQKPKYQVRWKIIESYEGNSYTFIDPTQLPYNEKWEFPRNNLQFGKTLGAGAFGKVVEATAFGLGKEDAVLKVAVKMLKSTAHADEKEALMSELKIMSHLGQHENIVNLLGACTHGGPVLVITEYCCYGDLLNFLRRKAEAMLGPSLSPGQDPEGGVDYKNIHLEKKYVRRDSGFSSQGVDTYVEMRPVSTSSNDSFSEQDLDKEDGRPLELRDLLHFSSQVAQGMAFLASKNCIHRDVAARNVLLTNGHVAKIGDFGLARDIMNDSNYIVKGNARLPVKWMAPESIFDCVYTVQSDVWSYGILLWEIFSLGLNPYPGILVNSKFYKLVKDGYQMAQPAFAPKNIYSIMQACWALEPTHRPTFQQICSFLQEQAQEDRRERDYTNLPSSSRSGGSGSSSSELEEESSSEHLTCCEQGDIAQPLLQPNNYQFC
FLT3, sequence (P36888 27-993): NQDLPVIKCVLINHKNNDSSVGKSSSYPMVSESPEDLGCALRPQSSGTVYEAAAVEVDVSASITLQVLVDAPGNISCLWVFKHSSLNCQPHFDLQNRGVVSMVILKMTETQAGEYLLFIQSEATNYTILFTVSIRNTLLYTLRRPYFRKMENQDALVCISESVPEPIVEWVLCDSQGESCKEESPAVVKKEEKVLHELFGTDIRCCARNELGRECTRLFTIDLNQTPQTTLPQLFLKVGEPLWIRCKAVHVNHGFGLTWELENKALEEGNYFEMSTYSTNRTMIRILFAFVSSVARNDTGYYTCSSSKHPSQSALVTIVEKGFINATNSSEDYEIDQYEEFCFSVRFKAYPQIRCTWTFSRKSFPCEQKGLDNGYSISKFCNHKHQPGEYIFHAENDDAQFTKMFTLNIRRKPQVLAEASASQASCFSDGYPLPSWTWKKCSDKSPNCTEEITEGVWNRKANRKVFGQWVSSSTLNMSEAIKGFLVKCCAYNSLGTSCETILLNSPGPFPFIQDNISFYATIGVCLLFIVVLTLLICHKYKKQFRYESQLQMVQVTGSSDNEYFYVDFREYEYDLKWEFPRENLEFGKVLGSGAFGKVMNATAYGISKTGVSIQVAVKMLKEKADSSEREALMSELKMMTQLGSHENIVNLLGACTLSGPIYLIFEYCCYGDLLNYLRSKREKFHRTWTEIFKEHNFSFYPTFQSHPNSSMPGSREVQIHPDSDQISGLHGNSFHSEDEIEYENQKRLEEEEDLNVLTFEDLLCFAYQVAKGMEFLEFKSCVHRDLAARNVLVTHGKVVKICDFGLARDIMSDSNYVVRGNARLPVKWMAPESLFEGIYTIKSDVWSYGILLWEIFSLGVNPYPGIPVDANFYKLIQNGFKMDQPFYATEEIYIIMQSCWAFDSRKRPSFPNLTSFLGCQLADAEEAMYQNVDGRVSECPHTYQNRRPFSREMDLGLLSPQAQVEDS

Which IC50 ([1]; Table 2) does the source give for `COc1ccc(COc2ncc(Cc3ccnc4cc(N5CCN(C)CC5)cnc34)cc2OC)nc1` [Example 116] here?
The IC50 was 3 nM.

What about the IC50 ([1]; Table 3) of the same compound?
Its IC50 is 3 nM.

And the IC50 ([2]; recombinant human protein)?
The IC50 was over 1000 nM.

And the “FLT3 Fold” value ([2]; selectivity: IC50 of FLT3 as multiple of IC50 of CSF-1R)?
Its value is over 100 fold.

What about the EC50 ([3]; Ba/F3_CSF-1R cells, 72 hours treatment, read-out: CSF-1R BaF3 EC50) of the same compound?
The EC50 was 33.8 nM.

What about the EC50 [4, 9] of the same compound?
Its EC50 is 10 nM.

And the Kp uu ([5]; po, mouse, p.o. 45 mg/kg)?
Its Kp uu is 0.99.

And the half-life [5, 10]?
The half-life was 6.42 h.

And the half-life [5, 11]?
The half-life was 4.87 h.

What about the AUC(0-t) [5, 12] of the same compound?
Its AUC(0-t) is 4250 ng·h/mL.

And the AUC(0-t) [5, 13]?
Its AUC(0-t) is 4620 ng·h/mL.

What about the AUC(0-inf) [5, 14] of the same compound?
Its AUC(0-inf) is 578 ng·h/mL.

What about the AUC(0-t) [5, 15] of the same compound?
Its AUC(0-t) is 566 ng·h/mL.

What about the clearance [5, 16] of the same compound?
The clearance was 57.7 mL/min/kg.

And the Vd [5, 16]?
Its Vd is 9.54 L/kg.

What about the bioavailability ([5]; serum, po, CD1 mouse) of the same compound?
The bioavailability was 42.1%.

And the AUC(0-t) [5, 17]?
The AUC(0-t) was 5370 ng·h/mL.

And the AUC(0-inf) [5, 18]?
Its AUC(0-inf) is 5480 ng·h/mL.

And the Cmax [5, 19]?
Its Cmax is 2310 ng/mL.

What about the Tmax [5, 19] of the same compound?
Its Tmax is 0.25 h.

What about the fraction unbound at 4 h, 2 µM [6] of the same compound?
Its fraction unbound at 4 h, 2 µM is 0.042.

What does the source list for `COc1ccc(COc2ncc(Cc3ccnc4cc(-c5ccn(C)n5)cnc34)cc2OC)nc1` [Example 134, 8-((5-methoxy-6-((5-methoxypyridin-2-yl)methoxy)pyridin-3-yl)methyl)-3-(1-methyl-1H-pyrazol-3-yl)-1,5-naphthyridine]?
IC50 ([1]; Table 2): 6.6 nM; IC50 ([1]; Table 3): 6.6 nM; EC50 [3, 20]: 7.1 nM; EC50 [4, 9]: 5.5 nM; Kp uu ([5]; po, mouse, p.o. 45 mg/kg): 0.75; half-life [5, 10]: 1.39 h; half-life [5, 11]: 1.86 h; AUC(0-t) [5, 12]: 44400 ng·h/mL; AUC(0-t) [5, 13]: 88400 ng·h/mL; AUC(0-inf) [5, 14]: 1890 ng·h/mL; AUC(0-t) [5, 15]: 1860 ng·h/mL; clearance [5, 16]: 17.7 mL/min/kg; Vd [5, 16]: 1.45 L/kg; bioavailability ([5]; serum, po, CD1 mouse): 227%; AUC(0-t) [5, 17]: 96400 ng·h/mL; AUC(0-inf) [5, 18]: 96500 ng·h/mL; Cmax [5, 19]: 18100 ng/mL; Tmax [5, 19]: 0.5 h; fraction unbound at 4 h, 2 µM [6]: 0.008; primary rat microglia survival [7]: dose-dependent inhibition of primary rat microglia survival; hiPSC-MG survival IC50 compared with BLZ945 [8]: lower than that of BLZ945; hiPSC-MG survival [8]: dose-dependent inhibition of hiPSC-MG survival

With `COc1cnc2c(Cc3cnc(OCc4cc5n(n4)C[C@H](OC)C5)c(OC)c3)ccnc2c1` [Example 136, (R)-3-methoxy-8-((5-methoxy-6-((5-methoxy-5,6-dihydro-4H-pyrrolo[1,2-b]pyrazol-2-yl)methoxy)pyridin-3-yl)methyl)-1,5-naphthyridine] as the compound, how does the IC50 ([1]; Table 2) read?
The IC50 was 5 nM.

What about the IC50 ([1]; Table 3) of the same compound?
The IC50 was 5 nM.

What about the EC50 [3, 20] of the same compound?
The EC50 was 66.2 nM.

What about the EC50 ([4]; read-out: ECO2 EC50 (nM)) of the same compound?
Its EC50 is 94.8 nM.

And the Kp uu ([5]; po, mouse, p.o. 45 mg/kg)?
The Kp uu was 0.94.

What about the half-life [5, 10] of the same compound?
Its half-life is 0.777 h.

And the AUC(0-t) [5, 12]?
The AUC(0-t) was 16200 ng·h/mL.

What about the AUC(0-t) [5, 13] of the same compound?
The AUC(0-t) was 93200 ng·h/mL.

And the AUC(0-inf) [5, 14]?
Its AUC(0-inf) is 4940 ng·h/mL.

And the AUC(0-t) [5, 15]?
The AUC(0-t) was 4940 ng·h/mL.

And the clearance [5, 16]?
The clearance was 6.75 mL/min/kg.

What about the Vd [5, 16] of the same compound?
The Vd was 0.274 L/kg.

And the bioavailability ([5]; serum, po, CD1 mouse)?
Its bioavailability is 77.1%.

And the AUC(0-t) [5, 17]?
The AUC(0-t) was 85700 ng·h/mL.

What about the Cmax [5, 19] of the same compound?
Its Cmax is 51200 ng/mL.

And the Tmax [5, 19]?
The Tmax was 0.5 h.

And the fraction unbound at 4 h, 2 µM [6]?
Its fraction unbound at 4 h, 2 µM is 0.005.

And the “primary rat microglia survival” value [7]?
The value was “dose-dependent inhibition of primary rat microglia survival”.

And the hiPSC-MG survival [8]?
Its hiPSC-MG survival is “dose-dependent inhibition of hiPSC-MG survival”.
